From patent US20030096854A1, “Substituted tricyclics” (priority 2002, published 2003) come the findings set out here.

Usually IC50 stands for the concentration at which inhibition is half-maximal.

This experiment addresses T1, recombinant human secreted phospholipase A2 (Homo sapiens, UniProt P14555).
T1 sequence (P14555 21-144): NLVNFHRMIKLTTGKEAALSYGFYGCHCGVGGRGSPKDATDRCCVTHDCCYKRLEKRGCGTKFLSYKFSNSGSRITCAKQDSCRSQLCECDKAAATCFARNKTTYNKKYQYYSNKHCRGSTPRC
Nature of the experiment: Chromogenic assay for inhibitors of recombinant human secreted phospholipase A2 (Assay Example 1). Conditions: diheptanoyl thio-PC substrate, pH 7.5, absorbance at 405 nm. In kind it is biochemical. The source says:
The following chromogenic assay procedure was used to identify and evaluate inhibitors of recombinant human secreted phospholipase A2. The assay described herein has been adapted for high volume screening using 96 well microtiter plates. A general description of this assay method is found in the article, “Analysis of Human Synovial Fluid Phospholipase A2 on Short Chain Phosphatidylcholine-Mixed Micelles: Development of a Spectrophotometric Assay Suitable for a Microtiterplate Reader”, by Laure J. Reynolds, Lori L. Hughes, and Edward A Dennis, Analytical Biochemistry, 204, pp. 190-197, 1992 (the disclosure of which is incorporated herein by reference):
Bovine Serum Albumin (fatty acid free) (1 g/L)
(Sigma A-7030, product of Sigma Chemical Co. St. Louis Mo., USA) […]
pH 7.5 (adjust with NaOH)
Adjust pH to 4.5 with acetic acid
5,5′-dithiobis-2-nitrobenzoic acid
Racemic Diheptanoyl Thio—PC racemic 1,2-bis(heptanoylthio)-1,2-dideoxy-sn-glycero-3-phosphorylcholine TRITON X-100™ prepare at 6.249 mg/ml in reaction buffer to equal […]
TRITON X-100™ is a polyoxy ethylene non-ionic
A measured volume of racemic dipheptanoyl thio PC supplied in chloroform at a concentration of 100 mg/ml is taken to dryness and redissolved in 10 millimolar TRITON X-100™ nonionic detergent aqueous solution. Reaction Buffer is added to the solution, then DTNB to give the Reaction Mixture.
The reaction mixture thus obtained contains 1 mM diheptanoly thio-PC substrate, 0.29 mm Triton X-100™ detergent, and 0.12 mm DTMB in a buffered aqueous solution at pH 7.5.
1. Add 0.2 ml reaction mixture to all wells;
2. Add 10 ul test compound (or solvent blank) to appropriate wells, mix 20 seconds;
3. Add 50 nanograms of sPLA2 (10 microliters) to appropriate wells;
4. Incubate plate at 40° C. for 30 minutes;
5. Read absorbance of wells at 405 nanometers with an automatic plate reader.
All compounds were tested in triplicate. Typically, compounds were tested at a final concentration of 5 ug/ml. […] Lack of color development at 405 nanometers evidenced inhibition. Compounds initially found to be active were reassayed to confirm their activity and, if sufficiently active, IC50 values were determined. […] In all cases, % inhibition measured at 405 nanometers generated by enzyme reactions containing inhibitors relative to the uninhibited control reactions was determined. Each sample was titrated in triplicate and result values were averaged for plotting and calculation of IC50 values. IC50 were determined by plotting log concentration versus inhibition values in the range from 10-90% inhibition.

The structures appear in SMILES notation.

`NC(=O)COc1cccc2c1c1c(C(N)=O)cccc1n2Cc1ccccc1` [Compound 2a, [[5-Carbamoyl-9-(phenylmethyl)carbazol-4-yl]oxy]acetamide]: the IC50 (compounds of formula 2) worked out at 151 nM.
Take `NC(=O)c1cccc2c1c1c(OCC(=O)NCC(=O)O)cccc1n2Cc1ccccc1` [Compound 4a, N-[[[5-Carbamoyl-9-(phenylmethyl)carbazol-4-yl]oxy]acetyl]glycine]: the IC50 (compounds of formula 4) was found to be 118 nM.
For `CCNC(=O)COc1cccc2c1c1c(C(N)=O)cccc1n2Cc1ccccc1` [Compound 2b, [[5-Carbamoyl-9-(phenylmethyl)carbazol-4-yl]oxy]-N-(ethyl)acetamide], the half-inhibitory concentration (IC50) (compounds of formula 2) is 273 nM.
For the compound `COC(=O)[C@H](C)NC(=O)COc1cccc2c1c1c(C(N)=O)cccc1n2Cc1ccccc1` [Compound 3b, N-[[[5-Carbamoyl-9-(phenylmethyl)carbazol-4-yl]oxy]acetyl]-L-alanine Methyl Ester], the IC50 (compounds of formula 3) was found to be 205 nM.
On to `COC(=O)CNC(=O)COc1cccc2c1c1c(C(N)=O)cccc1n2Cc1ccccc1` [Compound 3a, N-[[[5-Carbamoyl-9-(phenylmethyl)carbazol-4-yl]oxy]acetyl]glycine methyl ester], for which, under “compounds of formula 3”, the IC50 worked out at 383 nM.
Regarding `CSCC[C@H](NC(=O)COc1cccc2c1c1c(C(N)=O)cccc1n2Cc1ccccc1)C(=O)O` [Compound 4f, N-[[[5-Carbamoyl-9-(phenylmethyl)carbazol-4-yl]oxy]acetyl]-L-methionine], where the note is “compounds of formula 4”, the IC50 came to 103 nM.
For `NC(=O)c1cccc2c1c1c(OCC(=O)N[C@@H](CC(=O)O)C(=O)O)cccc1n2Cc1ccccc1` [Compound 4d, N-[[[5-Carbamoyl-9-(phenylmethyl)carbazol-4-yl]oxy]acetyl]-L-aspartic Acid], the IC50 (compounds of formula 4) is 99.2 nM.
On the same count and under the same terms, as for `CC(C)C[C@H](NC(=O)COc1cccc2c1c1c(C(N)=O)cccc1n2Cc1ccccc1)C(=O)O` [Compound 4c, N-[[[5-Carbamoyl-9-(phenylmethyl)carbazol-4-yl]oxy]acetyl]-L-leucine], the figure is 16.1 nM.
`COC(=O)C[C@H](NC(=O)COc1cccc2c1c1c(C(N)=O)cccc1n2Cc1ccccc1)C(=O)OC` [Compound 3d, N-[[[5-Carbamoyl-9-(phenylmethyl)carbazol-4-yl]oxy]acetyl]-L-aspartic Acid Dimethyl Ester]: the IC50 (compounds of formula 3) worked out at 513 nM.
Turning to `COC(=O)CC[C@H](NC(=O)COc1cccc2c1c1c(C(N)=O)cccc1n2Cc1ccccc1)C(=O)OC` [Compound 3e, N-[[[5-Carbamoyl-9-(phenylmethyl)carbazol-4-yl]oxy]acetyl]-L-glutamic Acid Dimethyl Ester], under “compounds of formula 3”, the IC50 turned out to be 709 nM.
On the same count and under the same terms, as for `COC(=O)[C@H](Cc1ccccc1)NC(=O)COc1cccc2c1c1c(C(N)=O)cccc1n2Cc1ccccc1` [Compound 3g, N-[[[5-Carbamoyl-9-(phenylmethyl)carbazol-4-yl]oxy]acetyl]-L-phenylalanine Methyl Ester], the figure is 8600 nM.
`NC(=O)c1cccc2c1c1c(OCC(=O)N[C@@H](CCC(=O)O)C(=O)O)cccc1n2Cc1ccccc1` [Compound 4e, N-[[[5-Carbamoyl-9-(phenylmethyl)carbazol-4-yl]oxy]acetyl]-L-glutamic Acid]: the IC50 (compounds of formula 4) stood at 61.2 nM.
Take `COC(=O)[C@H](CCSC)NC(=O)COc1cccc2c1c1c(C(N)=O)cccc1n2Cc1ccccc1` [Compound 3f, N-[[[5-Carbamoyl-9-(phenylmethyl)carbazol-4-yl]oxy]acetyl]-L-methionine Methyl Ester]: the IC50 (compounds of formula 3) was 263 nM.
As to `NC(=O)c1cccc2c1c1c(OCC(=O)N[C@@H](Cc3ccccc3)C(=O)O)cccc1n2Cc1ccccc1` [Compound 4g, N-[[[5-Carbamoyl-9-(phenylmethyl)carbazol-4-yl]oxy]acetyl]-L-phenylalanine], the IC50 (compounds of formula 4) was 324 nM.
With `COC(=O)[C@H](CC(C)C)NC(=O)COc1cccc2c1c1c(C(N)=O)cccc1n2Cc1ccccc1` [Compound 3c, N-[[[5-Carbamoyl-9-(phenylmethyl)carbazol-4-yl]oxy]acetyl]-L-leucine Methyl Ester], the IC50 (compounds of formula 3) was 67.5 nM.
